# Measured values published in ChEMBL document CHEMBL1909046, “DrugMatrix in vitro pharmacology data”.
# Test system: not listed separately
# Test: DRUGMATRIX: GABAA, Muscimol, Central radioligand binding (ligand: [3H] Muscimol)
# Assay type: cell membranes, Rattus norvegicus, Wistar, Brain, Membrane
# Conditions: Not Active = under 50% inhibition at 10 µM
Compound,IC50,Ki
Cc1cccc(Nc2ccccc2C(=O)O)c1C [MEFENAMIC ACID],Not Active,Not Active
CC(=O)O[C@]1(C(C)=O)CC[C@H]2[C@@H]3C=C(C)C4=CC(=O)CC[C@]4(C)[C@H]3CC[C@@]21C [MEGESTROL ACETATE],Not Active,Not Active
COc1ccccc1OCC(O)COC(N)=O (stereo not given) [METHOCARBAMOL],Not Active,Not Active
CN(Cc1cnc2nc(N)nc(N)c2n1)c1ccc(C(=O)N[C@@H](CCC(=O)O)C(=O)O)cc1 [METHOTREXATE],Not Active,Not Active
COC(=O)c1ccccc1O [METHYL SALICYLATE],Not Active,Not Active

# Target: T1, Calcitonin receptor (Homo sapiens, UniProt P30988); further: in other assays of this panel Not Active means under 50% inhibition at 10 µM
# T1 sequence (P30988 whole entry): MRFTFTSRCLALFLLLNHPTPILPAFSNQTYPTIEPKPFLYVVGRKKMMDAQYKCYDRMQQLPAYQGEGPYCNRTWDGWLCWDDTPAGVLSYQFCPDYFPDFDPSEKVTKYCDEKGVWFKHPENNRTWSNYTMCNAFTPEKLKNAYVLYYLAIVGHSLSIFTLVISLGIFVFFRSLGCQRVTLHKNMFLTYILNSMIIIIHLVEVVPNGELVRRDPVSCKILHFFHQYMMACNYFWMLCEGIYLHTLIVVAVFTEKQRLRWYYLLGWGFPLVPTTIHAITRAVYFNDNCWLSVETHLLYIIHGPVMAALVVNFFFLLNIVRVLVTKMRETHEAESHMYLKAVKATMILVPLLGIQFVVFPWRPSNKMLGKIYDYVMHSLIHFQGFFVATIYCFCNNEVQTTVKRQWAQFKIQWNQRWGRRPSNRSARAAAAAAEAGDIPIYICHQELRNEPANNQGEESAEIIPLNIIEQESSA
# Test: not given
# Assay type: cell membranes, Membrane
# Conditions: t47d
row,Compound,IC50
1,Cc1cccc(Nc2ccccc2C(=O)O)c1C [MEFENAMIC ACID],Not Active
2,CC(=O)O[C@]1(C(C)=O)CC[C@H]2[C@@H]3C=C(C)C4=CC(=O)CC[C@]4(C)[C@H]3CC[C@@]21C [MEGESTROL ACETATE],Not Active
3,COc1ccccc1OCC(O)COC(N)=O (stereo not given) [METHOCARBAMOL],Not Active
4,CN(Cc1cnc2nc(N)nc(N)c2n1)c1ccc(C(=O)N[C@@H](CCC(=O)O)C(=O)O)cc1 [METHOTREXATE],Not Active
5,COC(=O)c1ccccc1O [METHYL SALICYLATE],Not Active

# Test system: not listed separately
# Test: DRUGMATRIX: Calcium Channel Type L, Phenylalkylamine radioligand binding (ligand: [3H] (-)-Desmethoxyverapamil (D-888))
# Assay type: cell membranes, Rattus norvegicus, Wistar, Brain, Membrane
# Conditions: Not Active = under 50% inhibition at 10 µM
Compound,IC50,Ki
Cc1cccc(Nc2ccccc2C(=O)O)c1C [MEFENAMIC ACID],Not Active,Not Active
CC(=O)O[C@]1(C(C)=O)CC[C@H]2[C@@H]3C=C(C)C4=CC(=O)CC[C@]4(C)[C@H]3CC[C@@]21C [MEGESTROL ACETATE],Not Active,Not Active
COc1ccccc1OCC(O)COC(N)=O (stereo not given) [METHOCARBAMOL],Not Active,Not Active
CN(Cc1cnc2nc(N)nc(N)c2n1)c1ccc(C(=O)N[C@@H](CCC(=O)O)C(=O)O)cc1 [METHOTREXATE],Not Active,Not Active
COC(=O)c1ccccc1O [METHYL SALICYLATE],Not Active,Not Active

# Target: T2, Endothelin-1 receptor (Homo sapiens, UniProt P25101); further: in other assays of this panel Not Active means under 50% inhibition at 10 µM
# T2 sequence (P25101 whole entry): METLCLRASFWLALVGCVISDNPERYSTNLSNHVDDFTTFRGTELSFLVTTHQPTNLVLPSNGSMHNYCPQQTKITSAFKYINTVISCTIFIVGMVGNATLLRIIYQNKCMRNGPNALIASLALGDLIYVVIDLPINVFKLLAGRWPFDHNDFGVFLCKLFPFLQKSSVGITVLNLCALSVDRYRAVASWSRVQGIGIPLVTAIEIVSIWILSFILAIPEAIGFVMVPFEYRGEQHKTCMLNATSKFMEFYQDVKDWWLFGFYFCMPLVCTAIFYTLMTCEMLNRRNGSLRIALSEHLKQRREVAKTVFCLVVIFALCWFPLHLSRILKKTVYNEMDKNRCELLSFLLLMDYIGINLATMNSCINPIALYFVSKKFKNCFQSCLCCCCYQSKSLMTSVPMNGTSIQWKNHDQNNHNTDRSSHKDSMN
# Test: not given
# Assay type: cell membranes, CHO-K1, Membrane
# Conditions: cho-k1
row,Compound,IC50
1,Cc1cccc(Nc2ccccc2C(=O)O)c1C [MEFENAMIC ACID],Not Active
2,CC(=O)O[C@]1(C(C)=O)CC[C@H]2[C@@H]3C=C(C)C4=CC(=O)CC[C@]4(C)[C@H]3CC[C@@]21C [MEGESTROL ACETATE],Not Active
3,COc1ccccc1OCC(O)COC(N)=O (stereo not given) [METHOCARBAMOL],Not Active
4,CN(Cc1cnc2nc(N)nc(N)c2n1)c1ccc(C(=O)N[C@@H](CCC(=O)O)C(=O)O)cc1 [METHOTREXATE],Not Active
5,COC(=O)c1ccccc1O [METHYL SALICYLATE],Not Active

# Target: Aldo-keto reductase family 1 member B1 (Rattus norvegicus, UniProt P07943);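 further: inhibition of aldose reductase enzyme activity, measured with DL-glyceraldehyde as the substrate; in other assays of this panel Not Active means under 50% inhibition at 10 µM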
# Test: biochemical
# Assay type: tissue-based, Lens of camera-type eye
# Conditions: not given
row,Compound,IC50
1,Cc1cccc(Nc2ccccc2C(=O)O)c1C [MEFENAMIC ACID],Not Active
2,CC(=O)O[C@]1(C(C)=O)CC[C@H]2[C@@H]3C=C(C)C4=CC(=O)CC[C@]4(C)[C@H]3CC[C@@]21C [MEGESTROL ACETATE],Not Active
3,COc1ccccc1OCC(O)COC(N)=O (stereo not given) [METHOCARBAMOL],Not Active
4,CN(Cc1cnc2nc(N)nc(N)c2n1)c1ccc(C(=O)N[C@@H](CCC(=O)O)C(=O)O)cc1 [METHOTREXATE],Not Active
5,COC(=O)c1ccccc1O [METHYL SALICYLATE],Not Active

# Target: T3, Angiotensin-converting enzyme (Oryctolagus cuniculus, UniProt P12822);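 further: enzymatic inhibition of angiotensin-converting enzyme measured with FAPGG as the substrate; in other assays of this panel Not Active means under 50% inhibition at 10 µM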
# T3 sequence (P12822 whole entry): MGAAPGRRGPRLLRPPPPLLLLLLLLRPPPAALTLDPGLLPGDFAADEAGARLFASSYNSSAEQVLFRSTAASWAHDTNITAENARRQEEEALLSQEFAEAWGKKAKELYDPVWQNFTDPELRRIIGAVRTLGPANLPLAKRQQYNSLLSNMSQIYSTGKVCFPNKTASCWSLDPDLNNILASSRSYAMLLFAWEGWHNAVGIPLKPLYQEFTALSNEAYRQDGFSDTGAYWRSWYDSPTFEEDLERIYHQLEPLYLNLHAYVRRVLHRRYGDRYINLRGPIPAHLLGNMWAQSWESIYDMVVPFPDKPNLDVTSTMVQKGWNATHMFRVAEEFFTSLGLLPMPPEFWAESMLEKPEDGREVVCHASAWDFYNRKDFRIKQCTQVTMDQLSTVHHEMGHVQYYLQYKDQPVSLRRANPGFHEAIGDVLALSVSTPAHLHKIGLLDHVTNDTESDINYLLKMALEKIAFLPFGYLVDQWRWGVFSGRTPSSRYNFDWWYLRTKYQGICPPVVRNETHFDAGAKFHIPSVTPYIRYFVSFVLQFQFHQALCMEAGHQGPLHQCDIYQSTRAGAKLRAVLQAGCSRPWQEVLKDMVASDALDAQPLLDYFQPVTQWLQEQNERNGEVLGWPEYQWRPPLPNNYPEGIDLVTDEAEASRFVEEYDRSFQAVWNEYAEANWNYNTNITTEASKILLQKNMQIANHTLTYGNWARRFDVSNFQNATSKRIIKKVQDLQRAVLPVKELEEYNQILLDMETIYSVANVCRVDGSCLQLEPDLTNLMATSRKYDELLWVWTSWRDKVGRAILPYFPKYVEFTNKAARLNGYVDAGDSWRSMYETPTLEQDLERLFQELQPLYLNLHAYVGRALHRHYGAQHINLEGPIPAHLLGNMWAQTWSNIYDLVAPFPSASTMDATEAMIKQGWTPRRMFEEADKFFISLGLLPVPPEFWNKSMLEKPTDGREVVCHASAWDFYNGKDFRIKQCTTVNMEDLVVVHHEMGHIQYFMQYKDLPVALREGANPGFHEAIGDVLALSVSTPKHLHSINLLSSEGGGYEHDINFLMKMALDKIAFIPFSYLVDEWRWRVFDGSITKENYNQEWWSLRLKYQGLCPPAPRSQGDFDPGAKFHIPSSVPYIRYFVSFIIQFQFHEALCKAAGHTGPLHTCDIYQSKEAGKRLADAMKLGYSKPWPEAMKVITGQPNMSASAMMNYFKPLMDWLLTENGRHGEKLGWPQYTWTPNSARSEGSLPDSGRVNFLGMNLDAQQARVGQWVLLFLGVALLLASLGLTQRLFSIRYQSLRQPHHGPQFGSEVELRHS
# Test: not given
# Assay type: tissue-based, Lung
# Conditions: not given
row,Compound,IC50
1,Cc1cccc(Nc2ccccc2C(=O)O)c1C [MEFENAMIC ACID],Not Active
2,CC(=O)O[C@]1(C(C)=O)CC[C@H]2[C@@H]3C=C(C)C4=CC(=O)CC[C@]4(C)[C@H]3CC[C@@]21C [MEGESTROL ACETATE],Not Active
3,COc1ccccc1OCC(O)COC(N)=O (stereo not given) [METHOCARBAMOL],Not Active
4,CN(Cc1cnc2nc(N)nc(N)c2n1)c1ccc(C(=O)N[C@@H](CCC(=O)O)C(=O)O)cc1 [METHOTREXATE],Not Active
5,COC(=O)c1ccccc1O [METHYL SALICYLATE],Not Active

# Test system: not listed separately
# Test: DRUGMATRIX: Glutamate, NMDA, Agonism radioligand binding (ligand: [3H] CGP-39653)
# Assay type: cell membranes, Rattus norvegicus, Wistar, Cerebral cortex, Membrane
# Conditions: Not Active = under 50% inhibition at 10 µM
Compound,IC50,Ki
Cc1cccc(Nc2ccccc2C(=O)O)c1C [MEFENAMIC ACID],Not Active,Not Active
CC(=O)O[C@]1(C(C)=O)CC[C@H]2[C@@H]3C=C(C)C4=CC(=O)CC[C@]4(C)[C@H]3CC[C@@]21C [MEGESTROL ACETATE],Not Active,Not Active
COc1ccccc1OCC(O)COC(N)=O (stereo not given) [METHOCARBAMOL],Not Active,Not Active
CN(Cc1cnc2nc(N)nc(N)c2n1)c1ccc(C(=O)N[C@@H](CCC(=O)O)C(=O)O)cc1 [METHOTREXATE],Not Active,Not Active
COC(=O)c1ccccc1O [METHYL SALICYLATE],Not Active,Not Active

# Target: T4, D(4) dopamine receptor (Homo sapiens, UniProt P21917)
# T4 sequence (P21917 whole entry): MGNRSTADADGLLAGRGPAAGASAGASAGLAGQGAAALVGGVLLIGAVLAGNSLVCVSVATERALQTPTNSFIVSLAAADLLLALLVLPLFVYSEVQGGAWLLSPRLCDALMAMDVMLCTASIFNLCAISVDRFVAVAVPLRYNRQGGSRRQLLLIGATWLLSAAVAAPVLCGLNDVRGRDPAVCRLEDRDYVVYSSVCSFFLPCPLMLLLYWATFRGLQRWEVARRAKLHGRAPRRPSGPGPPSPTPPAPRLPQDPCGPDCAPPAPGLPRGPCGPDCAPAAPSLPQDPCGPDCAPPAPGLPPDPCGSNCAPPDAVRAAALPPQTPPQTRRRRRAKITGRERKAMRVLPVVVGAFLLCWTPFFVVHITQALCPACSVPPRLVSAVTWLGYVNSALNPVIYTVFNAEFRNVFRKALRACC
# Test: DRUGMATRIX: Dopamine D4.2 radioligand binding (ligand: [3H] Spiperone)
# Assay type: cell membranes, CHO-K1, Membrane
# Conditions: cho-k1; Not Active = under 50% inhibition at 10 µM
row,Compound,IC50
1,Cc1cccc(Nc2ccccc2C(=O)O)c1C [MEFENAMIC ACID],Not Active
2,CC(=O)O[C@]1(C(C)=O)CC[C@H]2[C@@H]3C=C(C)C4=CC(=O)CC[C@]4(C)[C@H]3CC[C@@]21C [MEGESTROL ACETATE],Not Active
3,COc1ccccc1OCC(O)COC(N)=O (stereo not given) [METHOCARBAMOL],Not Active
4,CN(Cc1cnc2nc(N)nc(N)c2n1)c1ccc(C(=O)N[C@@H](CCC(=O)O)C(=O)O)cc1 [METHOTREXATE],Not Active
5,COC(=O)c1ccccc1O [METHYL SALICYLATE],Not Active
